In ChEMBL document CHEMBL1131984, “Synthesis and antitumour activity of novel diterpenequinone salvicine and the analogs” (Bioorg Med Chem Lett, 1999):
Several values for one entry are separate records, joined by “and”; a condition that tells them apart may be missing. Identical values can stand only once.

Key:
HL-60 [1] = test: In vitro cytotoxic activity against HL-60 human leukemia cell line by MTT assay (microculture terazolium colorimetric); type: functional, cell-based
P388 = test: In vitro cytotoxic activity against P388 mouse leukemia cell line by MTT assay (microculture terazolium colorimetric); type: functional, cell-based
SGC-7901 = test: In vitro cytotoxic activity against SGC-7901 stomach cancer solid tumor cell line by MTT assay (microculture terazolium colorimetric); type: functional, cell-based; conditions: Homo sapiens
SPC-A4 = test: In vitro cytotoxic activity against SPC-A4 lung cancer solid tumor cell line by MTT assay (microculture terazolium colorimetric); type: functional, cell-based; conditions: Homo sapiens
HL-60 [2] = test: In vitro cytotoxic activity against HL-60 human leukemia cell line was determined by MTT assay (microculture terazolium colorimetric); type: functional, cell-based
Mus musculus [3] = test: In vivo inhibitory activity against human lung adenocarcinoma xenograft LAX-83 in mice at a dose of 2.0 mg/kg (Q2dx10) administered i.p.; type: functional; conditions: route intraperitoneal
Mus musculus [4] = test: In vivo inhibitory activity against human lung adenocarcinoma xenograft A-549 in mice at a dose of 2.0 mg/kg (Q2dx10) administered i.p.; type: functional; conditions: route intraperitoneal
Mus musculus [5] = test: In vivo inhibitory activity against human lung adenocarcinoma xenograft A-549 in mice at a dose of 2.0 mg/kg (Q2dx9) administered i.p.; type: functional; conditions: A549, ip, route intraperitoneal
Mus musculus [6] = test: Ratio of the tumor weight of mice at the initial stage and the final stage of the experiment was reported at a dose of 0.2 ml/mouse (Q2dx10) administered i.p.; type: functional
Mus musculus [7] = test: Ratio of the tumor weight of mice at the initial stage and the final stage of the experiment was reported at a dose of 0.2 ml/mouse (Q2dx10) administered i.p.; 10/10; type: functional
Mus musculus [8] = test: Ratio of the tumor weight of mice at the initial stage and the final stage of the experiment was reported at a dose of 0.2 ml/mouse (Q2dx9) administered i.p.; type: functional
Mus musculus [9] = test: In vivo inhibitory activity against murine S-180 sarcoma at a dose of 3.75 mg/kg (day 7); type: functional; conditions: S-180, 168 h
Mus musculus [10] = test: In vivo inhibitory activity against murine S-180 sarcoma at a dose of 3.75 mg/kg i.p. (day 7); type: functional; conditions: S-180, ip, 168 h, route intraperitoneal
Mus musculus [11] = test: (§1) In vivo inhibitory activity against murine S-180 sarcoma at a dose of 7.5 mg/kg (day 7); type: functional; conditions: S-180, 168 h
Mus musculus [12] = test: In vivo inhibitory activity against murine S-180 sarcoma at a dose of 7.5 mg/kg i.p. (day 7); type: functional; conditions: S-180, ip, 168 h, route intraperitoneal
Mus musculus [13] = test: as §1; type: functional; conditions: S-180, 168 h; remark: listed apart in the source
Mus musculus [14] = test: In vivo inhibitory activity against human lung adenocarcinoma xenograft A-549 in mice at a dose of 20 mg/kg (Q2dx9) administered i.p.; type: functional; conditions: A549, ip, route intraperitoneal
Mus musculus [15] = test: In vivo inhibitory activity against human lung adenocarcinoma xenograft A-549 in mice at a dose of 30 mg/kg (Q2dx10) administered i.p.; type: functional; conditions: route intraperitoneal
Mus musculus [16] = test: In vivo inhibitory activity against human lung adenocarcinoma xenograft A-549 in mice at a dose of 30 mg/kg (Q2dx9) administered i.p.; type: functional; conditions: A549, ip, route intraperitoneal
Mus musculus [17] = test: In vivo inhibitory activity against human lung adenocarcinoma xenograft LAX-83 in mice at a dose of 10 mg/kg (Q2dx10) administered i.p.; type: functional; conditions: route intraperitoneal; for inhibition in vivo at 10 mg/kg: ip
Mus musculus [18] = test: In vivo inhibitory activity against human lung adenocarcinoma xenograft LAX-83 in mice at a dose of 20 mg/kg (Q2dx10) administered i.p.; type: functional; conditions: route intraperitoneal
Mus musculus [19] = test: In vivo inhibitory activity against human lung adenocarcinoma xenograft LAX-83 in mice at a dose of 30 mg/kg (Q2dx10) administered i.p.; type: functional; conditions: route intraperitoneal
Mus musculus [20] = test: In vivo inhibitory activity against murine Lewis lung cancer at a dose of 15 mg/kg i.p. (day10); type: functional; conditions: route intraperitoneal
Mus musculus [21] = test: In vivo inhibitory activity against murine Lewis lung cancer at a dose of 37.5 mg/kg i.p. (day10); type: functional; conditions: route intraperitoneal
Mus musculus [22] = test: In vivo inhibitory activity against murine Lewis lung cancer at a dose of 7.5 mg/kg i.p. (day10); type: functional; conditions: ip, 240 h, route intraperitoneal
Mus musculus [23] = test: (§2) In vivo inhibitory activity against murine S-180 sarcoma at a dose of 15 mg/kg (day 6); type: functional; conditions: S-180, 144 h
Mus musculus [24] = test: as §2; type: functional; conditions: S-180, 144 h; remark: listed apart in the source
Mus musculus [25] = test: (§3) Ratio of the tumor weight of mice at the initial stage and the final stage of the experiment was reported at a dose of 7.5 mg/kg (day 7); type: functional
Mus musculus [26] = test: (§4) Ratio of the tumor weight of mice at the initial stage and the final stage of the experiment was reported at a dose of 7.5 mg/kg i.p. (day 10); type: functional; conditions: route intraperitoneal
Mus musculus [27] = test: as §4; type: functional; conditions: route intraperitoneal; remark: listed apart in the source
Mus musculus [28] = test: In vivo inhibitory activity against human lung adenocarcinoma xenograft A-549 in mice at a dose of 10 mg/kg (Q2dx10) administered i.p.; type: functional; conditions: route intraperitoneal
Mus musculus [29] = test: In vivo inhibitory activity against human lung adenocarcinoma xenograft A-549 in mice at a dose of 10 mg/kg (Q2dx9) administered i.p.; type: functional; conditions: A549, ip, route intraperitoneal
Mus musculus [30] = test: In vivo inhibitory activity against human lung adenocarcinoma xenograft A-549 in mice at a dose of 20 mg/kg (Q2dx10) administered i.p.; type: functional; conditions: route intraperitoneal
Mus musculus [31] = test: Ratio of the tumor weight of mice at the initial stage and the final stage of the experiment was reported at a dose of 10 mg/kg (Q2dx10) administered i.p.; type: functional; conditions: route intraperitoneal
Mus musculus [32] = test: (§5) Ratio of the tumor weight of mice at the initial stage and the final stage of the experiment was reported at a dose of 15 mg/kg (day 6); type: functional
Mus musculus [33] = test: Ratio of the tumor weight of mice at the initial stage and the final stage of the experiment was reported at a dose of 3.75 mg/kg (day 7); type: functional
Mus musculus [34] = test: Ratio of the tumor weight of mice at the initial stage and the final stage of the experiment was reported at a dose of 3.75 mg/kg i.p. (day 10); type: functional; conditions: route intraperitoneal
Mus musculus [35] = test: (§6) Ratio of the tumor weight of mice at the initial stage and the final stage of the experiment was reported at a dose of 15 mg/kg i.p. (day 9); type: functional; conditions: route intraperitoneal
Mus musculus [36] = test: as §5; type: functional; remark: listed apart in the source
Mus musculus [37] = test: as §6; type: functional; conditions: route intraperitoneal; remark: listed apart in the source
Mus musculus [38] = test: Ratio of the tumor weight of mice at the initial stage and the final stage of the experiment was reported at a dose of 20 mg/kg (Q2dx10) administered i.p.; type: functional; conditions: route intraperitoneal
Mus musculus [39] = test: Ratio of the tumor weight of mice at the initial stage and the final stage of the experiment was reported at a dose of 20 mg/kg (Q2dx9) administered i.p.; type: functional; conditions: route intraperitoneal
Mus musculus [40] = test: Ratio of the tumor weight of mice at the initial stage and the final stage of the experiment was reported at a dose of 3.75 mg/kg i.p. (day 7); type: functional; conditions: route intraperitoneal
Mus musculus [41] = test: (§7) Ratio of the tumor weight of mice at the initial stage and the final stage of the experiment was reported at a dose of 30 mg/kg (Q2dx10) administered i.p.; type: functional; conditions: route intraperitoneal
Mus musculus [42] = test: Ratio of the tumor weight of mice at the initial stage and the final stage of the experiment was reported at a dose of 30 mg/kg (Q2dx9) administered i.p.; type: functional; conditions: route intraperitoneal
Mus musculus [43] = test: as §7; type: functional; conditions: route intraperitoneal; remark: listed apart in the source
Mus musculus [44] = test: In vivo inhibitory activity against murine S-180 sarcoma at a dose of 15 mg/kg i.p. (day 6); type: functional; conditions: S-180, ip, 144 h, route intraperitoneal
Mus musculus [45] = test: as §3; type: functional; remark: listed apart in the source

Cc1ccc2cc(C(C)C)c(=O)oc(=O)c2c1CCC(=O)C(C)C
IC50 (HL-60 [1]): 1430 nM
IC50 (P388): 1470 nM
IC50 (SGC-7901): 89600 nM
IC50 (SPC-A4): 2760 nM

CC(C)=CCCc1c(C)ccc2c1C(=O)C(=O)C(C(C)C)=C2
IC50 (HL-60 [2]): 2360 nM
IC50 (P388): 1950 nM
IC50 (SGC-7901): 1370 nM
IC50 (SPC-A4): 2750 nM

CO[C@@]12[C@H](COC(N)=O)C3=C(C(=O)C(C)=C(N)C3=O)N1C[C@@H]1N[C@@H]12 [MITOMYCIN]
Inhibition (Mus musculus [3]): 63.49% and 70.1% and 87.54%
inhibition in vivo at 2 mg/kg (Mus musculus [4]; Mus musculus, A549, ip): 67.9%
Inhibition (Mus musculus [4]; 2 mg/kg): 52.69%
inhibition in vivo at 2 mg/kg (Mus musculus [5]): 79.2%
Tumor weight (Mus musculus [6]): 1.62 g and 1.71 g and 1.91 g and 1.15 g
Tumor weight (Mus musculus [7]): 2.64 g
Tumor weight (Mus musculus [8]): 3.43 g

Cc1ccc2c(c1CCC(O)C(C)(C)O)C(=O)C(=O)C(C(C)C)=C2 (centres undefined)
IC50 (HL-60 [1]): 3570 nM
inhibition in vivo at 3.75 mg/kg (Mus musculus [9]): 8.4%
inhibition in vivo at 3.75 mg/kg (Mus musculus [10]): 37.2%
inhibition in vivo at 7.5 mg/kg (Mus musculus [11]): 35.5%
inhibition in vivo at 7.5 mg/kg (Mus musculus [12]): 48.9%
inhibition in vivo at 7.5 mg/kg (Mus musculus [13]): 32.2%
inhibition in vivo at 20 mg/kg (Mus musculus [14]): 53.6%
Inhibition (Mus musculus [15]): 55.6% and 80.14%
inhibition in vivo at 30 mg/kg (Mus musculus [16]): 51.2%
inhibition in vivo at 10 mg/kg (Mus musculus [17]; Mus musculus): 41%
inhibition in vivo at 10 mg/kg (Mus musculus [17]): 28%
Inhibition (Mus musculus [17]; 10 mg/kg): 31.23%
Inhibition (Mus musculus [18]): 26.73% and 17.53% and 9.39%
Inhibition (Mus musculus [19]): 40.31% and 51.42% and 61.59%
inhibition in vivo at 15 mg/kg (Mus musculus [20]; Mus musculus, Lung, ip, 240 h): 49%
Inhibition (Mus musculus [20]; 15 mg/kg): 54.5%
inhibition in vivo at 37.5 mg/kg (Mus musculus [21]; Mus musculus, Lung, ip, 240 h): 12.9%
Inhibition (Mus musculus [21]; 37.5 mg/kg): 7.5%
inhibition in vivo at 7.5 mg/kg (Mus musculus [22]): 34%
inhibition in vivo at 15 mg/kg (Mus musculus [23]): 48.9%
inhibition in vivo at 15 mg/kg (Mus musculus [24]): 44%
Tumor weight (Mus musculus [25]): 1.07 g and 1.4 g
Tumor weight (Mus musculus [26]): 0.97 g
Tumor weight (Mus musculus [27]): 1.32 g
inhibition in vivo at 10 mg/kg (Mus musculus [28]; Mus musculus, A549, ip): 48.2%
Inhibition (Mus musculus [28]; 10 mg/kg): 30.15%
inhibition in vivo at 10 mg/kg (Mus musculus [29]): 25.5%
Inhibition (Mus musculus [30]): 60.55% and 27.76%
Tumor weight (Mus musculus [31]): 1.13 g [middle of 5 runs]
Tumor weight (Mus musculus [32]): 0.93 g
Tumor weight (Mus musculus [33]): 1.99 g and 1.72 g
Tumor weight (Mus musculus [34]): 1.28 g and 1.85 g
Tumor weight (Mus musculus [35]): 0.91 g
Tumor weight (Mus musculus [36]): 0.92 g and 1.06 g
Tumor weight (Mus musculus [37]): 0.75 g
Tumor weight (Mus musculus [38]): 1.25 g [middle of 5 runs]
Tumor weight (Mus musculus [39]): 1.59 g
Tumor weight (Mus musculus [40]): 1.52 g
Tumor weight (Mus musculus [41]): 0.72 g and 0.53 g and 1.02 g
Tumor weight (Mus musculus [42]): 1.67 g
Tumor weight (Mus musculus [43]): 0.93 g and 0.44 g
IC50 (P388): 3490 nM
IC50 (SGC-7901): 1840 nM
IC50 (SPC-A4): 2460 nM
inhibition in vivo at 15 mg/kg (Mus musculus [44]): 61.3%
Tumor weight (Mus musculus [45]): 1.22 g

Cc1ccc2c(c1CCC=O)C(=O)C(=O)C(C(C)C)=C2
IC50 (HL-60 [1]): 2390 nM
IC50 (P388): 1780 nM
IC50 (SGC-7901): 52400 nM
IC50 (SPC-A4): 2680 nM

Cc1ccc2c(c1CCC(Br)C(C)(C)O)C(=O)C(=O)C(C(C)C)=C2 (centres undefined)
IC50 (HL-60 [1]): 4610 nM
IC50 (P388): 3990 nM
IC50 (SGC-7901): 6120 nM
IC50 (SPC-A4): 1450 nM
